A short description of series [1]: Phase 1 dose escalation: adverse events (CTCAE v4.0), DLT, MTD/RP2D. Conditions: orally once daily with 3000 mg THU on days 1–6 and 8–13 of each 21-day cycle (dose level 8). It counts as in vivo, human.
Method: FdCyd and THU were supplied by the NCI Division of Cancer Treatment and Diagnosis. Patients were administered both drugs orally in 21-day cycles, and dose escalation proceeded according to a traditional 3 + 3 design as per the dose escalation schema shown in Supplementary Table S1. […] Patients maintained a study diary to note any side effects or concurrent medications. The NCI Common Terminology Criteria for Adverse Events version 4.0 was used to grade adverse events. Tumor response was assessed by radiography at baseline and every 2 cycles thereafter and evaluated per RECIST version 1.1 [11]. Following determination of the maximum tolerated dose (MTD)/recommended phase 2 dose (RP2D), an additional 13 patients were enrolled on a RP2D expansion cohort for assessments of pharmacodynamic biomarkers in baseline and on-treatment tumor biopsies.
DLTs were defined as toxicities that were at least possibly related to FdCyd or THU within the first cycle of treatment and met one of the following criteria: grade ≥ 3 non-hematological toxicity (including grade 3 nausea, vomiting, or diarrhea only if refractory to standard supportive care; grade 3 electrolyte toxicities only if unable to be corrected to ≤ grade 1 within 24 h; and tumor pain only if refractory to analgesics); grade 4 thrombocytopenia; or grade 4 neutropenia lasting ≥ 5 days or febrile neutropenia. […]
The next series concerns CDKN2A. As to the kind of experiment: Tumor CDKN2A promoter methylation from genome-wide methylation sequencing. It counts as in vivo, human. To be noted: of 6 expansion cohort patients with both CDKN2A and p16 IHC data. The method, then:
Tumor biopsy cores collected at baseline and C1W3 underwent nucleic acid extraction using the Qiagen AllPrep FFPE Nucleic acid Extraction kit and QiaCube automated platform. Extractions were performed on 1–2 biopsy cores per patient per time point; for specimens with low tumor content, tumor microdissection was performed prior to extraction. Genome-wide DNA methylation sequencing on the isolated DNA was performed by Zymo Research using Methyl-MiniSeq Genome-Wide Bisulfite Sequencing methodology. Sequence reads from bisulfite-treated Classic RRBS libraries were identified using standard Illumina base calling software. Raw FASTQ files were trimmed of adapter, filled-in nucleotides, and low-quality base calls using TrimGalore 0.6.4. […] Methylated and unmethylated read totals for each CpG site were called using Bismark Methylation Extractor. The methylation level of each sampled cytosine was estimated as the number of reads reporting a C, divided by the total number of reads reporting a C or T.
All statistical analyses were performed in R. Differentially methylated CpG sites (DMCs)—both hypo- and hyper-methylated—were identified with the R package DSS [14] using the two-sided Wald test for beta-binomial distributions with smoothing step as recommended. […] Regions with many significant DMCs were detected as differentially methylated regions (DMRs) using DSS function callDMR. […]

Series [2] has as its system p16-expressing vimentin-positive (V+) CTCs. As to the kind of experiment: CellSearch analysis of CTC p16 expression, V+ CTCs. It is filed as in vivo, human. To be noted: 2 of the 22 evaluable patients; oral FdCyd + THU. The method, then: Each blood specimen for CTC analysis (7.5 mL) was collected into a 10-mL CellSave preservative tube (Menarini Silicon Biosystems). Specimens were collected pre-treatment and then 6 h after THU administration on C1D1; prior to THU administration on […] and either C1D8 or […] (at the end of the first round of drug administration); on day 1 of cycle 2 and all subsequent cycles; and optionally at time of progression. Blood sample collection for CTC analysis was performed relative to the morning dose of THU for patients on the BID dose levels (DL10-11). CTC samples were processed and analyzed for p16, cytokeratin, and vimentin as described previously. Serial baseline blood specimens (C1D1 pre, C1D1 post, and […]) were obtained in light of baseline variability in CTC counts and p16 expression, and patients were considered assessable for cytokeratin-positive (CK^+) CTC p16 response if at least one of these baseline specimens (i.e., C1D1 pre, C1D1 post, and/or […]) and at least one post-treatment specimen (collected C2D1 or later) each contained ≥ 6 CTCs, as described. For patients with multiple baseline specimens, the specimen with the highest frequency of p16-positive CTCs was considered “baseline,” as described.

For series [3] the following is noted: cited from earlier work.
The subject of another series is DNA methylation. Also on record: method as in PMID 2425957. Conditions: preclinical data; 1 µM = 245 ng/mL; cited from earlier work.

Turning to `Nc1nc(=O)n([C@H]2C[C@H](O)[C@@H](CO)O2)cc1F` [FdCyd, 5-fluoro-2’-deoxycytidine], the “Maximum tolerated dose / RP2D, FdCyd dose” value in series [1] amounted to 160 mg. The “Patients with treatment-associated decreases in tumor CDKN2A methylation” value in the series on CDKN2A is “Five”. Moreover, the “Patients with increases in the proportion of p16-expressing V+ CTCs” value in series [2] was found to be 9%. For the same compound, the “FdCyd bioavailability, previously established” value in series [3] was 10%. Also, the “FdCyd clearance, previous reports” value in series [3] (intravenously administered FdCyd with THU, ref previous reports) is recorded as 142 mL/min/m^2. In addition, the “FdCyd concentration giving inhibition of DNA methylation in vitro” value in the series on DNA methylation was not below 1 µM.

These data come from PMC12722308, “A phase 1 study of orally administered 5-fluoro-2’-deoxycytidine with tetrahydrouridine in patients with refractory solid tumors” (Cancer Chemotherapy and Pharmacology, 2025).
